The source of these data is patent US7279099B2, “Sludge treatment process” (FKOS, LLC, priority 2004, dated 2007).

Where two headings read alike, the source gives them in different places.

Data set [1] concerns Ascaris eggs. The conditions noted are these: for Time to PFRP: closed system.
For data set [2] the following is noted: 24 h, 500 mg/L.
Another data set deals with Fecal coliform. The conditions noted are these: ozone at 20–30 mg/L at pH 3.0 for at least two hours; cited from earlier work.
Another data set relates to poliovirus. The conditions noted are these: ozone at 20–30 mg/L at pH 3.0 for at least two hours; cited from earlier work.
The test system of the next data set is C. perfringens spores. The conditions noted are these: only ozone used; cited from earlier work.
The conditions of data set [3]: 1500 mg/L.
The test system of another data set is Ascaris. The conditions noted are these: biosolids, closed system; cited from earlier work.
The test system of the next data set is viruses. As to the kind of experiment: Disinfection of biosolids with chlorine dioxide: viruses.
The subject of another data set is bacteria. As to the kind of experiment: Disinfection of biosolids with chlorine dioxide: bacteria.
The test system of data set [4] is Ascaris eggs. As to the kind of experiment: Disinfection of biosolids with chlorine dioxide alone: Ascaris eggs. Particulars: concentrations as high as 1000 ppm.

Turning to `O=NO` [sodium nitrite], the “Time to PFRP” value in the data set with Ascaris eggs [1] (TSS 3.02 %, initial NO2 dose 697 mg/L) amounted to 12 h; in the data set with Ascaris eggs [1] (TSS 3.02 %, initial NO2 dose 1046 mg/L) it was 2 h; in the data set on Ascaris eggs [1] (TSS 5.54 %, initial NO2 dose 1754 mg/L) it was 2 h; in the data set on Ascaris eggs [1] (TSS 5.54 %, initial NO2 dose 2573 mg/L) it was 2 h. Further, in data set [2], the “remaining sodium nitrite level” value lay within 150 to 250 mg/L. The “Average [NO2] Remaining” value by setting is: (697 mg/L) 340 mg/L; (1046 mg/L) 490 mg/L; (1754 mg/L) 1150 mg/L; (2573 mg/L) 1580 mg/L.

`O=[O+][O-]` [ozone]: the Fecal coliform reduction result in the data set on Fecal coliform is given as “reduced to a non-detectable level”. For the same compound, the inactivation of poliovirus result with poliovirus is reported as “at least 90%”. Besides, the “inactivation of C. perfringens spores” value in the data set on C. perfringens spores is on record as “not effective”.

Consider `O=NO` [nitrous acid], for which the “remaining HNO2 dose for PFRP to be reached in two hours” value in the data set with Ascaris eggs [1] (predicted using Equation 2) is recorded as “at least 25.46 mg/g”. The remaining nitrous acid result in data set [3] is given as “below 500 mg/L”. Moreover, in the data set with Ascaris, the “concentration capable of Ascaris inactivation” value is given as “above 400 mg/L”.

As for `[O][Cl+][O-]` [chlorine dioxide], the inactivation of viruses entry in the data set on viruses is reported as “capable of inactivating”. Moreover, the inactivation of bacteria result in the data set on bacteria is recorded as “capable of inactivating”. Also, the “inactivation of Ascaris eggs” value in the data set with Ascaris eggs [4] was “not able to inactivate”.
